≈ marks a conversion by molar mass, not a printed value.
Tests used:
[1] = Metabolic stability in human liver microsomes assessed as half life measured up to 60 mins by LC/MS analysis; assay type: ADME, Microsome
[2] = system: Plasmodium falciparum; experiment: Antiplasmodial activity against asexual blood-stage Plasmodium falciparum Tm90-C2B using 2% haematocrit and 0.2% parasitemia assessed as reduction in fluorescence measured after 72 hrs by Malaria SYBR Green I-based Fluorescence (MSF) assay; assay type: functional, organism-based
[3] = Solubility of the compound in potassium phosphate buffer at pH 7.4 by UV-vis spectroscopy; conditions: buffer
[4] = Metabolic stability in mouse liver microsomes assessed as half life measured up to 60 mins by LC/MS analysis; assay type: ADME, Microsome
[5] = system: Plasmodium falciparum; experiment: microbe, parasite or virus in culture; conditions: Dd2, 72 h
Description: Antiplasmodial activity against asexual blood-stage Plasmodium falciparum Dd2 using 2% haematocrit and 0.2% parasitemia assessed as reduction in fluorescence measured after 72 hrs by Malaria SYBR Green I-based Fluorescence (MSF) assay

[6] = in vitro; conditions: mouse, liver microsomes
[7] = in vitro; conditions: human, liver microsomes
[8] = system: Plasmodium yoelii; experiment: Antimalarial activity against erythrocytic Plasmodium yoelii MRA-428 infected in CF1 mouse assessed as reduction in parasitemia at 10 mg/kg, po once daily for 4 days measured on day 5; assay type: functional; design: scale not given: the % may be the effect or the level left; conditions: time 4 day
[9] = system: HepG2; experiment: Cytotoxicity against human HepG2 cells assessed as cell viability measured after 48 hrs by MTT assay; assay type: toxicity, cell-based; conditions: hepg2
[10] = system: Plasmodium yoelii; experiment: Antimalarial activity against erythrocytic Plasmodium yoelii MRA-428 infected in CF1 mouse assessed as reduction in parasitemia at 25 mg/kg, po once daily for 4 days measured on day 5; assay type: functional; design: scale not given: the % may be the effect or the level left; conditions: time 4 day
[11] = system: MDR1 (human); experiment: Apparent permeability across basolateral to apical side in MDCK transfected with human MDR1 cells incubated for 1 hr by LC-MS analysis; conditions: dog, MDCK-MDR1
[12] = system: MDR1 (human); experiment: Efflux ratio, ratio of apparent permeability across apical to basolateral side over basolateral to apical side in MDCK transfected with human MDR1 cells incubated for 1 hr by LC-MS analysis; conditions: dog
[13] = in vitro; conditions: human
Description: Selectivity index, ratio of IC50 for cytotoxicity against human HepG2 cells to IC50 for antiplasmodial activity against asexual blood-stage Plasmodium falciparum D6

[14] = system: MDR1 (human); experiment: Apparent permeability across apical to basolateral side in MDCK transfected with human MDR1 cells incubated for 1 hr by LC-MS analysis; conditions: dog, MDCK-MDR1
[15] = system: Plasmodium falciparum; experiment: microbe, parasite or virus in culture; conditions: D6, 72 h
Description: Antiplasmodial activity against asexual blood-stage Plasmodium falciparum D6 using 2% haematocrit and 0.2% parasitemia assessed as reduction in fluorescence measured after 72 hrs by Malaria SYBR Green I-based Fluorescence (MSF) assay

[16] = system: Plasmodium yoelii; experiment: Antimalarial activity against erythrocytic Plasmodium yoelii MRA-428 infected in CF1 mouse assessed as cured mouse at 50 mg/kg, po once daily for 4 days measured on day 28 day; assay type: functional, organism-based; conditions: time 4.0 day
[17] = system: Plasmodium yoelii; experiment: Antimalarial activity against erythrocytic Plasmodium yoelii MRA-428 infected in CF1 mouse assessed as cured mouse at 25 mg/kg, po once daily for 4 days measured on day 28 day; assay type: functional, organism-based; conditions: time 4.0 day
[18] = system: Plasmodium yoelii; experiment: Antimalarial activity against erythrocytic Plasmodium yoelii MRA-428 infected in CF1 mouse assessed as reduction in parasitemia at 50 mg/kg, po once daily for 4 days measured on day 5; assay type: functional; design: scale not given: the % may be the effect or the level left; conditions: time 4 day

| half-life [1] | IC50 [2] | solubility [3] | half-life [4] | IC50 [5] | microsomal CLint at 1 h [6] | microsomal CLint at 1 h [7] | Papp B→A at 1 h [11] | efflux ratio at 1 h [12] | Papp A→B at 1 h [14] | IC50 [15] | SMILES | Activity [8] | IC50 [9] | Activity [10] | selectivity ratio [13] | Activity [16] | Activity [17] | Activity [18] |
| --- | --- | --- | --- | --- | --- | --- | --- | --- | --- | --- | --- | --- | --- | --- | --- | --- | --- | --- |
| 16.1 min | 38.8 nM | 199 µM (≈ 62.8 µg/mL) | 14.6 min | 35.6 nM | 94.7 µL/min/mg | 85.9 µL/min/mg | 2.78 ×10⁻⁶ cm/s | 2.7 | 1.02 ×10⁻⁶ cm/s | 56.9 nM | COC1=C(OC)/C(=C/NC2CCCCCC2)N=C1c1ccc[nH]1 | 8.81% | 16500 nM | 81.2% | 290 | – | – | – |
| 51.3 min | 1.35 nM | 131 µM (≈ 42.9 µg/mL) | 16.7 min | 11.9 nM | 82.8 µL/min/mg | 27 µL/min/mg | 1.3 ×10⁻⁶ cm/s | 5.2 | 0.25 ×10⁻⁶ cm/s | 6.36 nM | CCc1ccc(C2=N/C(=C\NC3CCCCC3)C3=C2OCCO3)[nH]1 | 0% | 1960 nM | 19.4% | 308 | – | – | – |
| > 60 min | 55.9 nM | 24.4 µM (≈ 10.5 µg/mL) | > 60 min | 45.7 nM | 9.13 µL/min/mg | 6.19 µL/min/mg | 0.001 ×10⁻⁶ cm/s | 0.59 | 0.002 ×10⁻⁶ cm/s | 41.9 nM | CCC1=C(CC)/C(=C/NC23C[C@H]4C[C@@H](C2)C[C@@H](C3)C4)N=C1c1cc2cc(OC)ccc2[nH]1 | 87.2% | 5250 nM | 93.8% | 125 | – | – | – |
| 52.1 min | 15.1 nM | 10.7 µM (≈ 5.41 µg/mL) | > 60 min | 15.3 nM | 12.2 µL/min/mg | 26.6 µL/min/mg | 0.005 ×10⁻⁶ cm/s | 0.079 | 0.059 ×10⁻⁶ cm/s | – | COc1ccc(C2=C(c3ccc(OC)cc3)/C(=C/NC34C[C@H]5C[C@@H](C3)C[C@@H](C4)C5)N=C2c2ccc[nH]2)cc1 | – | 7940 nM | – | 496 | – | – | – |
| 24.5 min | 471 nM | 30.7 µM (≈ 11.7 µg/mL) | > 60 min | 467 nM | 19.7 µL/min/mg | 56.5 µL/min/mg | 0.001 ×10⁻⁶ cm/s | 0.59 | 0.002 ×10⁻⁶ cm/s | 536 nM | CCC1=C(CC)/C(=C/NC2CCCCC2)N=C1c1cc2cc(Cl)ccc2[nH]1 | – | – | – | – | – | – | – |
| > 60 min | 7.32 nM | 40 µM (≈ 15.4 µg/mL) | > 60 min | 8.98 nM | – | – | 0.074 ×10⁻⁶ cm/s | 0.22 | 0.34 ×10⁻⁶ cm/s | 14.1 nM | CCC1=C(CC)/C(=C/NC23C[C@H]4C[C@@H](C2)C[C@@H](C3)C4)N=C1c1ccc(Cl)[nH]1 | 23.2% | 4440 nM | 90.7% | 315 | – | – | – |

Continued, compound first:

| SMILES | half-life [1] | IC50 [2] | solubility [3] | half-life [4] | IC50 [5] | microsomal CLint at 1 h [6] | microsomal CLint at 1 h [7] | Papp B→A at 1 h [11] | efflux ratio at 1 h [12] | Papp A→B at 1 h [14] | IC50 [15] | Activity [8] | IC50 [9] | Activity [10] | selectivity ratio [13] | Activity [16] | Activity [17] | Activity [18] |
| --- | --- | --- | --- | --- | --- | --- | --- | --- | --- | --- | --- | --- | --- | --- | --- | --- | --- | --- |
| CCC1=C(CC)/C(=C/NC23C[C@H]4C[C@@H](C2)C[C@@H](C3)C4)N=C1c1ccc(-c2ccccc2)[nH]1 | 46.9 min | 1.83 nM | < 3.125 µM | 15.1 min | 1.33 nM | 91.8 µL/min/mg | 29.5 µL/min/mg | 0.002 ×10⁻⁶ cm/s | – | 2.85 ×10⁻⁶ cm/s | 2.58 nM | 0% | 2060 nM | – | 800 | – | – | – |
| CCC1=C(CC)/C(=C/NC23C[C@H]4C[C@@H](C2)C[C@@H](C3)C4)N=C1c1ccccc1O | – | 310 nM | – | – | 188 nM | – | – | – | – | – | 130 nM | – | 12200 nM | – | 93 | – | – | – |
| CCC1=C(CC)/C(=C/N[C@H]2CC[C@H](C(=O)OC)CC2)N=C1c1ccc[nH]1 | 14.4 min | 405 nM | 121 µM (≈ 43 µg/mL) | 12.6 min | 299 nM | 110 µL/min/mg | 96.4 µL/min/mg | 0.74 ×10⁻⁶ cm/s | 8.4 | 0.088 ×10⁻⁶ cm/s | 367 nM | – | – | – | – | Not active; None Of The Mouse Cured Out Of Four Tested | – | – |
| CCC1=C(CC)/C(=C/NC2CCCCCC2)N=C1c1ccc(Br)[nH]1 | > 60 min | 130 nM | < 3.125 µM | 58.5 min | 224 nM | 23.7 µL/min/mg | 13 µL/min/mg | 0.001 ×10⁻⁶ cm/s | 0.26 | 0.004 ×10⁻⁶ cm/s | 281 nM | – | – | – | – | – | – | – |
| CCC1=C(CC)/C(=C/NC2CCCCC2)N=C1c1ccc(Cl)[nH]1 | > 60 min | 202 nM | 22.6 µM (≈ 7.5 µg/mL) | > 60 min | 232 nM | 0.67 µL/min/mg | 8.01 µL/min/mg | 0.12 ×10⁻⁶ cm/s | 0.17 | 0.71 ×10⁻⁶ cm/s | 391 nM | – | – | – | – | – | – | – |
| CCC1=C(CC)/C(=C/NC2CCCCCC2)N=C1c1ccc(CC)[nH]1 | > 60 min | 4.57 nM | 30.1 µM (≈ 10.2 µg/mL) | > 60 min | 3.21 nM | 5.29 µL/min/mg | 13.3 µL/min/mg | 0.012 ×10⁻⁶ cm/s | – | 0.03 ×10⁻⁶ cm/s | 7.2 nM | 37.6% | 3640 nM | 100% | – | Not active; None Of The Mouse Cured Out Of Four Tested | Not active; None Of The Mouse Cured Out Of Four Tested | 100% |
| CCC1=C(CC)/C(=C/NC2CCCCC2)N=C1c1ccc[nH]1 | 30.5 min | 79.9 nM | 307 µM (≈ 91.3 µg/mL) | 40.1 min | 115 nM | 34.5 µL/min/mg | 45.5 µL/min/mg | 0.18 ×10⁻⁶ cm/s | – | 0.22 ×10⁻⁶ cm/s | 72.1 nM | 94.4% | 13000 nM | 100% | – | Not active; None Of The Mouse Cured Out Of Four Tested | Not active; None Of The Mouse Cured Out Of Four Tested | 100% |
| C(/NC12C[C@H]3C[C@@H](C1)C[C@@H](C2)C3)=C1/N=C(c2ccc[nH]2)C2=C1OCCO2 | 11.7 min | 3.91 nM | 114 µM (≈ 40.1 µg/mL) | 27.9 min | 8.4 nM | 49.8 µL/min/mg | 118 µL/min/mg | 0.85 ×10⁻⁶ cm/s | 6.1 | 0.14 ×10⁻⁶ cm/s | – | 0% | 3760 nM | – | 444 | – | – | – |
| CCC1=C(C)/C(=C/NC2CCCCC2)N=C1c1ccc(C)[nH]1 | > 60 min | 32.3 nM | 72.5 µM (≈ 21.6 µg/mL) | 31.7 min | 15.7 nM | 43.7 µL/min/mg | 6.07 µL/min/mg | 0.099 ×10⁻⁶ cm/s | – | 0.33 ×10⁻⁶ cm/s | 27.4 nM | 80.3% | 8090 nM | 100% | – | Not active; None Of The Mouse Cured Out Of Four Tested | Not active; None Of The Mouse Cured Out Of Four Tested | 100% |
| CCC1=C(CC)/C(=C/NC2CCCCCC2)N=C1c1ccc(Cl)[nH]1 | > 60 min | 180 nM | 14.4 µM (≈ 4.98 µg/mL) | > 60 min | 254 nM | 8.33 µL/min/mg | 22.2 µL/min/mg | 0.076 ×10⁻⁶ cm/s | 0.4 | 0.19 ×10⁻⁶ cm/s | 460 nM | – | – | – | – | – | – | – |
| CCC1=C(CC)/C(=C/NC23C[C@H]4C[C@@H](C2)C[C@@H](C3)C4)N=C1c1ccc(Cc2ccc(OC)cc2)[nH]1 | > 60 min | 3.99 nM | 26.2 µM (≈ 12.3 µg/mL) | > 60 min | 0.868 nM | 4.57 µL/min/mg | 11.7 µL/min/mg | 0.008 ×10⁻⁶ cm/s | 0.21 | 0.04 ×10⁻⁶ cm/s | 2.08 nM | 0% | 1610 nM | – | 775 | – | – | – |
| CCC1=C(CC)/C(=C/NC23C[C@H]4C[C@@H](C2)C[C@@H](C3)C4)N=C1c1ccc(-c2ccc(OC)cc2)[nH]1 | 12.2 min | 8.02 nM | 12.4 µM (≈ 5.65 µg/mL) | 12.1 min | 5.37 nM | 110 µL/min/mg | 114 µL/min/mg | 0.016 ×10⁻⁶ cm/s | 0.53 | 0.03 ×10⁻⁶ cm/s | 8.88 nM | 11.5% | 999 nM | – | 113 | – | – | – |

Reference: ChEMBL document CHEMBL6178021, “Optimization of Tambjamines Active against Multiple Stages of Malaria Parasites” (J Med Chem, 2025)
